Here are results for 13 compounds from patent publication US20040152740A1, “Arylglycine derivatives for use as glycine transport inhibitors” (NPS Allelix Corporation, priority 2002, published 2004).

SMILES strings stand for the structures. pIC50: −log10 of the molar value.

For this assay, the target named is T1, human GlyT-2 (Homo sapiens, UniProt Q9Y345).
T1 construct: expressed in transfected cells; elsewhere 'preferably QT-6 cells derived from quail fibroblasts'
T1 sequence (Q9Y345 1-797): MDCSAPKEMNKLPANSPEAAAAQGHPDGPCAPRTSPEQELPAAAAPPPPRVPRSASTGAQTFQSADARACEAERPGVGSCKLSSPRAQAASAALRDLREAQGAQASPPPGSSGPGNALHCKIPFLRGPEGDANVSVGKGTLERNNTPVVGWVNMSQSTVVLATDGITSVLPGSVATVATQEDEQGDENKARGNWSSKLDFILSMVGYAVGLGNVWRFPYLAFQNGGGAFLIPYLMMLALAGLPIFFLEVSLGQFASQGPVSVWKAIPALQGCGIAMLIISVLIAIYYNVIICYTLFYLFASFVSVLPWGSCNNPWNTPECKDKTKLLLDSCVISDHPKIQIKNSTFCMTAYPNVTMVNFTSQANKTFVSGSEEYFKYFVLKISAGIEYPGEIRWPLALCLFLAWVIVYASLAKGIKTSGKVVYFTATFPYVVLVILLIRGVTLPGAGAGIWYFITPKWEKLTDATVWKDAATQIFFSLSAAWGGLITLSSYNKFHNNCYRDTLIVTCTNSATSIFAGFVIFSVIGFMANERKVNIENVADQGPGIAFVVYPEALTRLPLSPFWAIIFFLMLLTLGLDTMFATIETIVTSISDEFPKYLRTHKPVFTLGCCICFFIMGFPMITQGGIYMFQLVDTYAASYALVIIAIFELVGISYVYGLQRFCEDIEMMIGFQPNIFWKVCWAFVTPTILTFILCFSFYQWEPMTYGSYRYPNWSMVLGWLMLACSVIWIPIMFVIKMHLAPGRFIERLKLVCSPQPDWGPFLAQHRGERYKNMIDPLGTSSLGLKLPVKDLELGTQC
Nature of the assay: Assay of transport via GlyT-2 transporters: [3H]glycine uptake by stably transfected cultured cells. In kind it is cell-based. Conditions: cells stably transfected with human GlyT-2; 50 nM [3H]glycine; ten minutes at 37° C.; read-out: GlyT1 uptake IC50. How it is done:
This example illustrates a method for the measurement of glycine uptake by transfected cultured cells.
Cells stably transfected with human GlyT-2 (the homolog of the rat GlyT-2 described by Liu et al., J. Biological Chemistry, 268, 1993:22802-22808) were washed twice with HEPES buffered saline (HBS). The cells were then incubated ten minutes at 37° C., after which a solution containing 50 nM [^3H]glycine (17.5 Ci/mmol) and either (a) no potential competitor, (b) […] or (c) a concentration of a candidate drug. A range of concentrations of the candidate drug was used to generate data for calculating the concentration resulting in 50% of the effect (e.g., the IC50's which are the concentration of drug inhibiting glycine uptake by 50%). The cells were then incubated another ten minutes at 37° C., after which the cells were aspirated and washed three times with ice-cold HBS. The cells were solubilized in scintillant, shaken for thirty minutes, and the radioactivity in the cells was counted using a scintillation counter. Data were compared between the same cells contacted and not contacted by the candidate agent.
Regarding `COc1ccc(NC(=S)NC(C(=O)Nc2c(C)cccc2C)c2ccccc2)c([N+](=O)[O-])c1` (stereo not shown) [Example E33.6, N-(2,6-dimethylphenyl)-2-[3-(4-methoxy-2-nitrophenyl)-thioureido]-2-phenyl acetamide], the pIC50 was 7.46.
The figure for `Cc1cccc(C)c1NC(=O)C(NC(=S)Nc1ccccc1S(=O)(=O)N(C)C)c1ccccc1` (stereo not shown) [Example E33.2, N-(2,6-dimethylphenyl)-2-[3-(2-N,N-dimethylsulphonamidophenyl)-thioureido]-2-phenyl acetamide] is 7.32; for `Cc1cccc(C)c1NC(=O)C(NC(=S)Nc1ccc(S(=O)(=O)N(C)C)cc1[N+](=O)[O-])c1ccccc1` (stereo not shown) [Example E33.5] it is 7.85.
The figure for `Cc1cccc(C)c1NC(=O)C(NC(=S)Nc1ccc(OCCN(C)C)cc1C(F)(F)F)c1ccccc1` (stereo not shown) [Example E33.8, N-(2.6-dimethylphenyl)-2-[3-(4-N,N-dimethylaminoethoxy-2-trifluoromethylphenyl)-thioureido]-2-phenyl acetamide] is 6.94.
Consider `COc1ccc(NC(=S)NC(C(=O)Nc2c(C)cccc2Cl)c2ccccc2)c([N+](=O)[O-])c1` (stereo not shown) [Example E29.1, N-(2-chloro-6-methylphenyl)-2-[3-(4-methoxy-2-nitrophenyl)-thioureido]-2-phenyl acetamide], for which the pIC50 is 7.64.
With `COc1ccc(NC(=S)NC(CC(C)C)C(=O)Nc2c(C)cccc2C)c([N+](=O)[O-])c1` (stereo not shown) [Example E51.3, N-(2.6-dimethylphenyl)-2-[3-(4-methoxy-2-nitrophenyl)-thioureido]-4-methylpentanamide], the pIC50 was 6.95.
The figure for `COc1ccc(NC(=S)N[C@H](CC(C)C)C(=O)Nc2c(C)cccc2C)c([N+](=O)[O-])c1` [E51.1*] is 7.04; for `CCOc1ccc(NC(=S)NC(C(=O)Nc2ccccc2C)c2ccccc2)c([N+](=O)[O-])c1` (stereo not shown) [Example E4.3, N-(2-methylphenyl)-2-[3-(4-ethoxy-2-nitrophenyl)-thioureido]-2-phenyl acetamide] it is 6.76.
Consider `CCOc1ccc(NC(=S)NC(C(=O)Nc2c(C)cccc2C)c2ccccc2)c([N+](=O)[O-])c1` (stereo not shown) [Example E33.1, N-(2,6-dimethylphenyl)-2-[3-(4-ethoxy-2-nitrophenyl)-thioureido]-2-phenyl acetamide], for which the negative logarithm of the IC50 (pIC50) was 7.31.
For the compound `COc1ccc(NC(=S)NC(C(=O)Nc2ccccc2C)c2ccccc2)c([N+](=O)[O-])c1` (stereo not shown) [Example E4.4, N-(2-methylphenyl)-2-[3-(2-nitro-4-methoxyphenyl)-thioureido]-2-phenyl acetamide], the negative logarithm of the IC50 (pIC50) was 7.08.
The same measure for `Cc1ccccc1NC(=O)[C@H](NC(=S)Nc1ccccc1[N+](=O)[O-])c1ccccc1` [Example E4.2]: 7.11; for `COc1ccc(NC(=S)NC(C(=O)Nc2c(C)cccc2C(C)C)c2ccccc2)c([N+](=O)[O-])c1` (stereo not shown) [Example E28.1, N-(2-isopropyl-6-methylphenyl)-2-[3-(4-methoxy-2-nitrophenyl)-thioureido]-2-phenyl acetamide]: 7.28.
As for `Cc1cccc(C)c1NC(=O)C(NC(=S)Nc1ccc(OCCN(C)C)cc1[N+](=O)[O-])c1ccccc1` (stereo not shown) [Example E33.4, N-(2.6-dimethylphenyl)-2-[3-(4-(2-N,N-dimethylamino)ethoxy-2-nitrophenyl)-thioureido]-2-phenyl acetamide], the negative-log IC50 (pIC50) was 6.74.

As usually defined, the pIC50 is −log10 of the IC50, conventionally taken in molar units.
